Laboratory results reported in patent publication US20230250106A1, “COMPOUNDS AND COMPOSITIONS FOR TREATING CONDITIONS ASSOCIATED WITH STING ACTIVITY” (IFM Due, Inc., priority 2020, published 2023).

Tested on: STING pathway
Assay: STING reporter assay: luciferase reporter activity in THP1-Dual KO-IFNAR2 cells activated with 2'3'cGAMP
Assay type: cell-based
Settings: Homo sapiens, 2'3'cGAMP 15 μM, 24 h, read-out: hSTING EC50
Summary of the method: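 Luciferase secreted into the supernatant (QUANTI-Luc Plus read-out) was measured after 24 h at 37 °C. This was in THP1-Dual KO-IFNAR2 cells given test compounds (0.0017-100 μM final) plus Lipofectamine-transfected 2′3′cGAMP at 15 μM final; EC50 was then derived.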

First: Cc1cc(N2CC(F)(F)C2)ncc1C(=O)Nc1c[nH]c2ccc(Cl)cc12 [Compound 272, N-(5-chloro-1H-indol-3-yl)-6-(3,3-difluoroazetidin-1-yl)-4-methylnicotinamide]
Second: O=C(Nc1c[nH]c2cc(F)c(F)cc12)c1ccc(CN2CC(F)(F)C2)nc1 [Compound 273, N-(5,6-difluoro-1H-indol-3-yl)-6-((3,3-difluoroazetidin-1-yl)methyl)nicotinamide]
The EC50 of the first is lower: 200 to 1000 nM for the first, 5000 to 100000 nM for the second. The first is the more potent here.

`Cc1nc(-c2cccc(C(=O)Nc3c[nH]c4cc(F)c(F)cc34)c2)no1` [Compound 274, N-(5,6-difluoro-1H-indol-3-yl)-3-(5-methyl-1,2,4-oxadiazol-3-yl)benzamide] and `CC(O)c1cc(C(=O)Nc2c[nH]c3cc(F)c(F)cc23)ccc1C(F)(F)F` (stereo not drawn) [Compound 276, N-(5,6-difluoro-1H-indol-3-yl)-3-(1-hydroxyethyl)-4-(trifluoromethyl)benzamide] fall in the same range of EC50: 200 to 1000 nM for the first, 200 to 1000 nM for the second.

`CC(O)c1cc(C(=O)Nc2c[nH]c3cc(F)c(F)cc23)cc(C(F)(F)F)c1` (stereo not drawn) [Compound 275, N-(5,6-difluoro-1H-indol-3-yl)-3-(1-hydroxyethyl)-5-(trifluoromethyl)benzamide] and `O=C(Nc1c[nH]c2cc(F)c(F)cc12)c1cc(CCO)cc(C(F)(F)F)c1` [Compound 279, N-(5,6-difluoro-1H-indol-3-yl)-3-(2-hydroxyethyl)-5-(trifluoromethyl)benzamide] fall in the same range of EC50: 1000 to 5000 nM for the first, 1000 to 5000 nM for the second.

First: O=C(Nc1c[nH]c2cc(F)c(F)cc12)c1cccc(NCCCC(F)(F)F)n1 [Compound 277, N-(5,6-difluoro-1H-indol-3-yl)-6-((4,4,4-trifluorobutyl)amino)picolinamide]
Second: O=C(Nc1c[nH]c2cc(F)c(F)cc12)c1ccc(C(F)(F)F)c(CCO)c1 [Compound 280, N-(5,6-difluoro-1H-indol-3-yl)-3-(2-hydroxyethyl)-4-(trifluoromethyl)benzamide]
The EC50 of the first is higher: 5000 to 100000 nM for the first, 200 to 1000 nM for the second. The second is the more potent here.

For `Cc1cc(C(=O)Nc2c[nH]c3cc(F)c(F)cc23)cc(C)c1C1CCC(F)(F)CC1` [Compound 278, N-(5,6-difluoro-1H-indol-3-yl)-4-(4,4-difluorocyclohexyl)-3,5-dimethylbenzamide], the EC50 was 1000 to 5000 nM.
